ChEMBL document CHEMBL1201862, “PubChem BioAssay data set” (2004)
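All cell lines were grown in 96-well plates and treated with compound for 48 hours. Here, GI50 denotes the concentration required for 50% inhibition of growth.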 The source made the active and inactive calls. Cut-off read from the data, not from the text of the source: active = GI50 up to about 1.1 µM and inactive = higher.

Tests used:
Experiment in all cases: NCI anticancer screen, dose series, 48 h
A498 = system: A498
NCI-H23 = system: NCI-H23
SW-620 = system: SW-620
DMS-114 = system: DMS-114
HCT-116 = system: HCT-116
TK-10 = system: TK-10
K562 = system: K562
HCT-15 = system: HCT-15
CAKI-1 = system: CAKI-1
DMS-273 = system: DMS-273
SNB-19 = system: SNB-19
HOP-62 = system: HOP-62
MOLT-4 = system: MOLT-4
OVCAR-3 = system: OVCAR-3
HL-60 = system: HL-60
OVCAR-5 = system: OVCAR-5
CCRF-CEM = system: CCRF-CEM
UACC-62 = system: UACC-62

SMILES	GI50 (A498)	GI50 (NCI-H23)	GI50 (SW-620)	GI50 (DMS-114)	GI50 (HCT-116)	GI50 (TK-10)	GI50 (K562)	GI50 (HCT-15)	GI50 (CAKI-1)	GI50 (DMS-273)	GI50 (SNB-19)	GI50 (HOP-62)	GI50 (MOLT-4)	GI50 (OVCAR-3)	GI50 (HL-60)	GI50 (OVCAR-5)	GI50 (CCRF-CEM)	GI50 (UACC-62)
CNC(=S)NC(=S)N(C)C	> 100 µM (inactive)	0.692 µM (active)	2.96 µM (inactive)	64.9 µM (inactive)	4.71 µM (inactive)	> 100 µM (inactive)	1.75 µM (inactive)	> 100 µM	> 100 µM (inactive)	0.869 µM (active)	> 100 µM (inactive)	> 100 µM (inactive)	3.61 µM (inactive)	3.18 µM (inactive)	3.42 µM (inactive)			
O=c1c2cc(Br)ccc2nc(-c2ccccc2)n1NCC1(O)OCC(O)C(O)C1O (stereo unspecified)	> 100 µM (inactive)	> 100 µM (inactive)	> 100 µM (inactive)	> 100 µM (inactive)	> 100 µM (inactive)		> 100 µM (inactive)	> 100 µM	> 100 µM (inactive)	> 100 µM (inactive)	> 100 µM (inactive)	> 100 µM (inactive)	72.8 µM (inactive)	81.8 µM (inactive)	26.2 µM (inactive)	> 100 µM (inactive)	40.2 µM (inactive)	> 100 µM (inactive)
CCN(CC)C(=O)CCn1cc(F)c(=O)[nH]c1=O		> 100 µM (inactive)	> 100 µM (inactive)	> 100 µM (inactive)	> 100 µM (inactive)	> 100 µM (inactive)	> 100 µM (inactive)	> 100 µM		> 100 µM (inactive)	> 100 µM (inactive)	> 100 µM (inactive)	> 100 µM (inactive)	> 100 µM (inactive)	> 100 µM (inactive)	> 100 µM (inactive)	> 100 µM (inactive)	> 100 µM (inactive)
CCOC(=O)C1N(S(=O)(=O)c2ccc(C)cc2)CCC12C(c1ccc(OC)c(OC)c1)=Nc1ccccc12 (stereo unspecified)	> 100 µM (inactive)	> 100 µM (inactive)	> 100 µM (inactive)	> 100 µM (inactive)	> 100 µM (inactive)	> 100 µM (inactive)	> 100 µM (inactive)		> 100 µM (inactive)	> 100 µM (inactive)	> 100 µM (inactive)	> 100 µM (inactive)		> 100 µM (inactive)	> 100 µM (inactive)	> 100 µM (inactive)	> 100 µM (inactive)	> 100 µM (inactive)
[N-]=[N+]=Nc1cc(=O)n(-c2ccccc2)c2ccccc12		> 100 µM (inactive)	> 100 µM (inactive)	> 100 µM (inactive)	> 100 µM (inactive)	> 100 µM (inactive)	> 100 µM (inactive)	> 100 µM	> 100 µM (inactive)	> 100 µM (inactive)		> 100 µM (inactive)	> 100 µM (inactive)		> 100 µM (inactive)	> 100 µM (inactive)	> 100 µM (inactive)	> 100 µM (inactive)
CCCCCCCCCCCCCP(=O)(O)O	> 100 µM (inactive)	> 100 µM (inactive)	> 100 µM (inactive)	> 100 µM (inactive)	> 100 µM (inactive)	> 100 µM (inactive)		> 100 µM		50.9 µM (inactive)	67.1 µM (inactive)	> 100 µM (inactive)		> 100 µM (inactive)	> 100 µM (inactive)	> 100 µM (inactive)	> 100 µM (inactive)	> 100 µM (inactive)
CCC(/C(=N\Nc1c(Cl)cc(Cl)cc1Cl)c1ccccc1)n1ccnc1C (stereo unspecified)	14.2 µM (inactive)	10.7 µM (inactive)	15.2 µM (inactive)	6.58 µM (inactive)	7.05 µM (inactive)	14.3 µM (inactive)	5.07 µM (inactive)	10.5 µM	11 µM (inactive)	4.6 µM (inactive)	14.4 µM (inactive)		5.41 µM (inactive)	5.82 µM (inactive)	3.82 µM (inactive)	9.04 µM (inactive)	13 µM (inactive)	17.5 µM (inactive)
